# Reference: US4732893A, “Amino-anthracenediones-platinum complexes useful as anticancer compounds” (priority 1984, dated 1988)
# Assays:
# [1] = system: L-1210 leukemia sensitive to c-DDP; experiment: second experiment: L-1210 leukemia sensitive to c-DDP, T/C, LTS, TOX; format: in vivo, mice; conditions: for T/C percentage: L-1210 leukemia (sensitive to Pt), c-DDP 7 mg/kg, BBR 1734 1.55 mg/kg, BBR 1735 8 mg/kg; for percentage of survivors at 60 days: 8.7.10^-6 mol/kg; for TOX (3): toxic deaths
# From the text: (§1) T/C percentage represents the percentual ratio of the mean survival time of the treated animals in comparison with the mean survival time of the control animals according to the methods described in "Anthracycline antibiotics" H. S. E. R Rhadem Edit., Academic Press, 1982.
# (§2) LTS represents number of long-term (over 60 days) surviving animals with no pathologic episodes (i.e. cured animals).
# (§3) (1) T/C: Mean survival time of treated mice/mean survival time of control
# (untreated) mice × 100.
# Mean survival time of treated mice is referred to dying animals only.
# (2) LTS: Longterm survivors (>60 days), i.e. cured animals. Mean survival
# (§4) (3) TOX: Toxic deaths are referred to animals dead before control animals
# (§5) or to animals showing macroscopic toxic symptoms without tumor.
# The data reported in Table 2 are the means of two subsequent experiments.
# L-1210 leukemia = experiment: first experiment: L-1210 leukemia in mice, T/C percentage and long term survival; format: in vivo; conditions: for Survival after 60 days: survivors/animals; for antitumor activity (in words): versus c-DDP and ligand alone
# Procedure: Pt(DMSO)Cl2 ].2HCl.H2 O (coded BBR 1651), water soluble, and cis-[1,4-bis-[2-(2-hydroxyethylamino)ethylamino]-5,8-dihydroxy-9,10-anthracenedione.PtCl2 ].2HCl.H2 O (coded BBR 1734) are tested in comparison with equimolecular dosages of 1,4-bis-[2-(2-hydroxyethylamino)ethylamino]-5,8-dihydroxy-9,10-anthracenedione (DHAQ.2HCl) and with c-DDP dosed at 7 mg/kg, against L-1210 leukemia in mice. Groups of 10 animals, treated with intraperitoneal injections of […] L-1210 cells, have been used at each dosage level, evaluating T/C percentage and long term survival, i.e. more than sixty days.
# as §1, §2
# A percentage of T/C over 120 indicates antitumoral activity; a percentage of T/C under 85 indicates toxicity.
# [2] = body weight, kidney weight and ureic nitrogen (nephrotoxicity) at LD50 doses; format: in vivo, mouse; conditions: i.v.; for general toxicity / body weight (in words) / renal toxicity (in words): LD50 doses; for % Δ of the body weight / Final body weight / Kidney weight / Kidney weight g/100 of body weight / Initial body weight / Ureic Nitrogen: dose corresponding to respective LD50; for Initial body weight: before treatment; for Ureic Nitrogen: urea content
# Procedure: The percent decrease of the body weight, the kidney weight and the ureic nitrogen excretion were determined for each treated group. The increase of kidney weight and the increase of ureic plasma content were assumed as nephrotoxic index of the compounds (see for example O. Tofanetti et al., "Tumori", 69, 105, 1983).
# [3] = Acute toxicity (LD50) in mouse; format: in vivo; conditions: intraperitoneal route
# [4] = system: c-DDP resistant L-1210 leukemia; experiment: c-DDP resistant L-1210 leukemia, T/C, LTS, TOX; format: in vivo, mice; conditions: for activity (in words): animals injected with cis-platin resistant leukemia cells; for TOX (3): toxic deaths
# From the text: as §1, §3
# (untreated) mice × 100. Mean survival time of treated mice is
# referred to dying animals only. N.ev.: not evaluable as consequence of th
# (2) LTS: Longterms survivors (>30 days), i.e. cured animals.
# as §4, §5
# [5] = system: genito-urinary tumors, head and neck cancer, osteogenic sarcoma; conditions: human, in vivo; cited from earlier work
# [6] = 1.93 × 10^-6 moles/kg (BBR 1734 1.55, BBR 1651 1.85, DHAQ.2HCl 1.00 mg/kg)
# [7] = 3.86 × 10^-6 moles/kg (BBR 1734 3.10, BBR 1651 3.70, DHAQ.2HCl 2.00 mg/kg)
# [8] = 7.73 × 10^-6 moles/kg (BBR 1734 6.20, BBR 1651 7.40, DHAQ.2HCl 4.00 mg/kg)
# [9] = 21 × 10^-6 moles/kg (c-DDP 7.00 mg/kg)
# [10] = 21 × 10^-6/kg (c-DDP 7.1 mg/kg)
# [11] = 29.6 × 10^-6/kg (c-DDP 10.0 mg/kg)
# [12] = 1.93 × 10^-6 moles/kg (DHAQ.2HCl 1.0, BBR 1651 1.85 mg/kg)
# [13] = 3.86 × 10^-6 moles/kg (DHAQ.2HCl 2.0, BBR 1651 3.7 mg/kg)
# [14] = 7.73-8.68 × 10^-6 moles/kg (DHAQ.2HCl 4.0-4.5, BBR 1651 7.4-8.32 mg/kg)
# [15] = 12.93 × 10^-6 moles/kg (DHAQ.2HCl 6.7, BBR 1651 12.40 mg/kg)
# [16] = 19.3 × 10^-6 moles/kg (DHAQ.2HCl 10.0, BBR 1651 18.5 mg/kg)
# [17] = 5.79 × 10^-6/kg (DHAQ-2HCl 3.0 mg/kg)
# [18] = 8.68 × 10^-6/kg (DHAQ-2HCl 4.5 mg/kg)
# [19] = 19.3 × 10^-6/kg (BBR 1651 18.5 mg/kg)
# [20] = 28.95 × 10^-6/kg (BBR 1651 27.75 mg/kg)
compound,measurement,setting,value
"Cl.Cl.O.O=C1c2c(O)ccc(O)c2C(=O)c2c3ccc(c21)NCC[NH+](CCO)[Pt-2]([Cl])([Cl])[NH+](CCO)CCN3 (stereo not drawn) [BBR 1734, cis-[1,4-bis-[2-(2-hydroxyethylamino)ethylamino]-5,8-dihydroxy-9,10-anthracenedione.PtCl2].2HCl.H2 O]",T/C percentage,[1],~200
same,% T/C,L-1210 leukemia; [6],200%
same,Survival after 60 days,L-1210 leukemia; [6],0/10
same,% T/C,L-1210 leukemia; [7],224%
same,Survival after 60 days,L-1210 leukemia; [7],1/10
same,Survival after 60 days,L-1210 leukemia; [8],7/10
same,antitumor activity (in words),L-1210 leukemia,good activities with better results than those obtained using the known c-DDP and the aminoanthracenedione ligand alone
same,general toxicity / body weight (in words),[2],general toxicity as indicated by the decrease of the body weight
same,renal toxicity (in words),[2],do not impair the renal excretory function and/or change the relative kidney weight
same,% Δ of the body weight,[2],-20.4%
same,Final body weight,[2],28.4 ± 0.775
same,Kidney weight,[2],0.362 ± 0.012
same,Kidney weight g/100 of body weight,[2],1.282 ± 0.036 g/100 of body weight
same,Initial body weight,[2],34.2 ± 0.731
same,Ureic Nitrogen,[2],14.85 ± 0.866 100 mg/ml of plasma
same,Acute toxicity (LD50),[3],22.9 mg/kg
"Cl.Cl.O.O=C1c2ccccc2C(=O)c2c3ccc(c21)NCC[NH+](CCO)[Pt-2]([Cl])([Cl])[NH+](CCO)CCN3 (stereo not drawn) [BBR 1735, cis-[1,4-bis-[2-(2-hydroxyethylamino-ethyl)-amino]-9,10-anthracenedione.PtCl2].2HCl.H2 O]",T/C percentage,[1],~200
same,general toxicity / body weight (in words),[2],general toxicity as indicated by the decrease of the body weight
same,renal toxicity (in words),[2],do not impair the renal excretory function and/or change the relative kidney weight
same,% Δ of the body weight,[2],-5.4%
same,Final body weight,[2],33.1 ± 1.103
same,Kidney weight,[2],0.428 ± 0.02
same,Kidney weight g/100 of body weight,[2],1.293 ± 0.042 g/100 of body weight
same,Initial body weight,[2],34.9 ± 0.857
same,Ureic Nitrogen,[2],14.88 ± 0.565 100 mg/ml of plasma
same,Acute toxicity (LD50),[3],30.0 mg/kg
"N.N.[Cl][Pt][Cl] [c-DDP, cis-diaminodichloroplatinum^II]",LTS (2) (>60 days),[1]; 21 × 10^-6 moles/kg (c-DDP 7.1 mg/kg),0/20
same,T/C (1) %,"[1]; 21 × 10^-6 moles/kg (c-DDP 7.1 mg/kg), range in parenthesis",193 (187-200) %
same,T/C (1) %,"[1]; 21 × 10^-6 moles/kg (c-DDP 7.1 mg/kg), range in parenthesis, listed as cis-platin",193%
same,LTS (2) (>60 days),[1]; 29.2 × 10^-6 moles/kg (c-DDP 10.0 mg/kg),1/20
same,T/C (1) %,"[1]; 29.2 × 10^-6 moles/kg (c-DDP 10.0 mg/kg), range in parenthesis",93 (87-100) %
same,T/C percentage,[1],~200
same,% T/C,L-1210 leukemia; [9],200%
same,Survival after 60 days,L-1210 leukemia; [9],0/10
same,LTS (2) (>30 days),[4]; [10],0/10
same,T/C (1) %,[4]; [10],100%
same,LTS (2) (>30 days),[4]; [11],0/10
same,T/C (1) %,[4]; [11],100%
same,activity (in words),[4],uneffective
same,clinical activity (in words),[5],activity is well demonstrated
same,serious side effects (in words),[5],"gastrointestinal (nausea and vomiting often severe and prolungated), renal (dose-limiting renal insufficiency), hematological, neurological (ototoxicity) complications"
"O=C1c2c(O)ccc(O)c2C(=O)c2c(NCCNCCO)ccc(NCCNCCO)c21 [DHAQ.2HCl, 1,4-bis-[2-(2-hydroxyethylamino)ethylamino]-5,8-dihydroxy-9,10-anthracenedione]",LTS (2) (>60 days),[1]; [12],0/10
same,T/C (1) %,[1]; [12],185%
same,LTS (2) (>60 days),[1]; [13],0/10
same,T/C (1) %,[1]; [13],214%
same,T/C (1) %,"[1]; 7.73-8.68 × 10^-6 moles/kg (DHAQ.2HCl 4.0-4.5 mg/kg), range in parenthesis",302 (235-369) %
same,LTS (2) (>60 days),[1]; [14],8/20
same,percentage of survivors at 60 days,[1],10%
same,T/C (1) %,[1]; 12.93 × 10^-6 moles/kg (DHAQ.2HCl 6.7 mg/kg),262%
same,LTS (2) (>60 days),[1]; [15],4/10
same,T/C (1) %,[1]; 19.3 × 10^-6 moles/kg (DHAQ.2HCl 10.0 mg/kg),231%
same,LTS (2) (>60 days),[1]; [16],1/10
same,increase of death rate in comparison with the control animals,[1]; Higher doses of DHAQ,up to 90%
same,TOX (3),[1]; [12],0/10
same,TOX (3),[1]; [13],0/10
same,TOX (3),[1]; [14],2/20
same,TOX (3),[1]; [15],5/10
same,TOX (3),[1]; [16],9/10
same,% T/C,L-1210 leukemia; [6],185%
same,% T/C,L-1210 leukemia; [7],214%
same,Survival after 60 days,L-1210 leukemia; [7],0/10
same,Survival after 60 days,L-1210 leukemia; [8],2/10
same,% T/C,L-1210 leukemia; 7.73 × 10^-6 moles/kg (DHAQ.2HCl 4.00 mg/kg),235%
same,LTS (2) (>30 days),[4]; [17],1/10
same,T/C (1) %,[4]; [17],145%
same,LTS (2) (>30 days),[4]; [18],2/10
same,T/C (1) %,[4]; [18],168%
same,TOX (3),[4]; [17],0/10
same,TOX (3),[4]; [18],0/10
"CS(C)=O.CS(C)=O.Cl.Cl.O.O=C1c2c(O)ccc(O)c2C(=O)c2c(NCCNCCO)ccc(NCCNCCO)c21.[Cl][Pt][Cl] [BBR 1651, cis-[1,4-bis-[2-(2-hydroxyethylamino)ethylamino]-5,8-dihydroxy-9,10-anthracenedione. Pt(DMSO)Cl2].2HCl.H2 O]",T/C,[1]; 1.39.10^-6 g/atom of Pt,200
same,LTS (2) (>60 days),[1]; [12],0/10
same,T/C (1) %,[1]; [12],200%
same,LTS (2) (>60 days),[1]; [13],1/10
same,T/C (1) %,[1]; [13],221%
same,LTS (2) (>60 days),[1]; [14],15/20
same,percentage of survivors at 60 days,[1],90%
same,LTS (2) (>60 days),[1]; [15],9/10
same,LTS (2) (>60 days),[1]; [16],9/10
same,longterms survivors (>60 days; i.e. cured animals),[1]; equal platinum content,9
same,increase of the dead animals before control animals,[1]; in words,did not cause any increase of the dead animals before control animals
same,activity compared with c-DDP (in words),"[1]; mouse, in vivo",extremely more active than the known c-DDP
same,TOX (3),[1]; [12],0/10
same,TOX (3),[1]; [13],0/10
same,TOX (3),[1]; [14],0/20
same,TOX (3),[1]; [15],0/10
same,% T/C,L-1210 leukemia; [6],195%
same,Survival after 60 days,L-1210 leukemia; [6],0/10
same,% T/C,L-1210 leukemia; [7],220%
same,Survival after 60 days,L-1210 leukemia; [7],1/10
same,Survival after 60 days,L-1210 leukemia; [8],7/10
same,antitumor activity (in words),L-1210 leukemia,good activities with better results than those obtained using the known c-DDP and the aminoanthracenedione ligand alone
same,LTS (2) (>30 days),[4]; [19],3/10
same,T/C (1) %,[4]; [19],186%
same,LTS (2) (>30 days),[4]; [20],4/10
same,activity (in words),[4],active drug
same,TOX (3),[4]; [19],0/10
same,TOX (3),[4]; [20],1/10
